Experimental data published in PubChem BioAssay AID2060907 (Molecular Pharmacology Branch, DTP, NCI, 2025).

Test system: 388556-164-R-J1-PDC complex spheroid viability
Assay: Anticancer human tumor 388556-164-R-J1-PDC patient-derived colon adenocarcinoma cell line growth inhibition [RAS]
Details: for IC50: curve of first compound; for viability, T/C: stronger effect = lower value
Method in brief: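 Agents were tested in combination matrices in half-log decrements from a top concentration at or near clinical Cmax (10 microM if undetermined). Targets were multi-cell spheroids of tumour lines plus HUVEC and MSC stromal cells.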

[1] = second compound 0.000949 µM, first compound 0.00316 µM
[2] = second compound 0.000949 µM, first compound 0.01 µM
[3] = second compound 0.000949 µM, first compound 0.0316 µM
[4] = second compound 0.000949 µM, first compound 0.1 µM
[5] = second compound 0.000949 µM, first compound 0.316 µM
[6] = second compound 0.000949 µM, first compound 1 µM
[7] = second compound 0.003 µM, first compound 0.00316 µM
[8] = second compound 0.003 µM, first compound 0.01 µM
[9] = second compound 0.003 µM, first compound 0.0316 µM
[10] = second compound 0.003 µM, first compound 0.1 µM
[11] = second compound 0.003 µM, first compound 0.316 µM
[12] = second compound 0.003 µM, first compound 1 µM
[13] = second compound 0.00949 µM, first compound 0.00316 µM
[14] = second compound 0.00949 µM, first compound 0.01 µM
[15] = second compound 0.00949 µM, first compound 0.0316 µM
[16] = second compound 0.00949 µM, first compound 0.1 µM
[17] = second compound 0.00949 µM, first compound 0.316 µM
[18] = second compound 0.00949 µM, first compound 1 µM
[19] = second compound 0.03 µM, first compound 0.00316 µM
[20] = second compound 0.03 µM, first compound 0.01 µM
[21] = second compound 0.03 µM, first compound 0.0316 µM
[22] = second compound 0.03 µM, first compound 0.1 µM
[23] = second compound 0.03 µM, first compound 0.316 µM
[24] = second compound 0.03 µM, first compound 1 µM
[25] = second compound 0.0949 µM, first compound 0.00316 µM
[26] = second compound 0.0949 µM, first compound 0.01 µM
[27] = second compound 0.0949 µM, first compound 0.0316 µM
[28] = second compound 0.0949 µM, first compound 0.1 µM
[29] = second compound 0.0949 µM, first compound 0.316 µM
[30] = second compound 0.0949 µM, first compound 1 µM
[31] = second compound 0.3 µM, first compound 0.00316 µM
[32] = second compound 0.3 µM, first compound 0.01 µM
[33] = second compound 0.3 µM, first compound 0.0316 µM
[34] = second compound 0.3 µM, first compound 0.1 µM
[35] = second compound 0.3 µM, first compound 0.316 µM
[36] = second compound 0.3 µM, first compound 1 µM
[37] = second compound 0.000949 µM, first compound 3.16 µM
[38] = second compound 0.000949 µM, first compound 10 µM
[39] = second compound 0.003 µM, first compound 3.16 µM
[40] = second compound 0.003 µM, first compound 10 µM
[41] = second compound 0.00949 µM, first compound 3.16 µM
[42] = second compound 0.00949 µM, first compound 10 µM
[43] = second compound 0.03 µM, first compound 3.16 µM
[44] = second compound 0.03 µM, first compound 10 µM
[45] = second compound 0.0949 µM, first compound 3.16 µM
[46] = second compound 0.0949 µM, first compound 10 µM
[47] = second compound 0.3 µM, first compound 3.16 µM
[48] = second compound 0.3 µM, first compound 10 µM
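Note: spheroids exposed to compound for 7 days before readout.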
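Throughout, for viability, T/C: 100% = DMSO vehicle control luminescence.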

C=CC(=O)Nc1cc(Nc2nccc(-c3cn(C)c4ccccc34)n2)c(OC)cc1N(C)CCN(C)C + CCn1c(-c2cc(N3CCN(C)CC3)cnc2C(C)OC)c2c3cc(ccc31)-c1csc(n1)CC(NC(=O)C1CC1C)C(=O)N1CCCC(N1)C(=O)OCC(C)(C)C2
IC50 (second compound 0.000949 µM): 745 nM | IC50 (second compound 0.003 µM): 480 nM | IC50 (second compound 0.00949 µM): 416 nM | IC50 (second compound 0.03 µM): 41.8 nM | IC50 (second compound 0.0949 µM): < 3.16 nM | IC50 (second compound 0.3 µM): < 3.16 nM | viability, T/C [1]: 92.8% | viability, T/C [2]: 92.1% | viability, T/C [3]: 93.5% | viability, T/C [4]: 79.8% | viability, T/C [5]: 60.4% | viability, T/C [6]: 46.4% | viability, T/C [7]: 91.7% | viability, T/C [8]: 90.3% | viability, T/C [9]: 75.3% | viability, T/C [10]: 74% | viability, T/C [11]: 56.4% | viability, T/C [12]: 38.1% | viability, T/C [13]: 79.2% | viability, T/C [14]: 78.9% | viability, T/C [15]: 65.8% | viability, T/C [16]: 66.4% | viability, T/C [17]: 60.5% | viability, T/C [18]: 28.3% | viability, T/C [19]: 62.1% | viability, T/C [20]: 50.8% | viability, T/C [21]: 54.9% | viability, T/C [22]: 45.8% | viability, T/C [23]: 36.1% | viability, T/C [24]: 27.3% | viability, T/C [25]: 39.4% | viability, T/C [26]: 42.7% | viability, T/C [27]: 46.8% | viability, T/C [28]: 33.1% | viability, T/C [29]: 28.2% | viability, T/C [30]: 22.8% | viability, T/C [31]: 32.2% | viability, T/C [32]: 28.5% | viability, T/C [33]: 30.8% | viability, T/C [34]: 25.1% | viability, T/C [35]: 25.7% | viability, T/C [36]: 24%

CC(C)NCC(C(=O)N1CCN(c2ncnc3c2C(C)CC3O)CC1)c1ccc(Cl)cc1 (stereo not drawn) + CCn1c(-c2cc(N3CCN(C)CC3)cnc2C(C)OC)c2c3cc(ccc31)-c1csc(n1)CC(NC(=O)C1CC1C)C(=O)N1CCCC(N1)C(=O)OCC(C)(C)C2
IC50 (second compound 0.000949 µM): > 10000 nM | IC50 (second compound 0.003 µM): > 10000 nM | IC50 (second compound 0.00949 µM): > 10000 nM | IC50 (second compound 0.03 µM): 5630 nM | IC50 (second compound 0.0949 µM): < 31.6 nM | IC50 (second compound 0.3 µM): < 31.6 nM | viability, T/C [3]: 105% | viability, T/C [4]: 107% | viability, T/C [5]: 96.4% | viability, T/C [6]: 91.2% | viability, T/C [37]: 95% | viability, T/C [38]: 103% | viability, T/C [9]: 102% | viability, T/C [10]: 96.5% | viability, T/C [11]: 95.4% | viability, T/C [12]: 82% | viability, T/C [39]: 84.9% | viability, T/C [40]: 88% | viability, T/C [15]: 86% | viability, T/C [16]: 80% | viability, T/C [17]: 69.4% | viability, T/C [18]: 73.9% | viability, T/C [41]: 84.8% | viability, T/C [42]: 58.8% | viability, T/C [21]: 58.2% | viability, T/C [22]: 65.7% | viability, T/C [23]: 57.1% | viability, T/C [24]: 56% | viability, T/C [43]: 51.9% | viability, T/C [44]: 47.8% | viability, T/C [27]: 45.7% | viability, T/C [28]: 46.5% | viability, T/C [29]: 38.9% | viability, T/C [30]: 36.3% | viability, T/C [45]: 40.9% | viability, T/C [46]: 33% | viability, T/C [33]: 31.9% | viability, T/C [34]: 31.5% | viability, T/C [35]: 30.5% | viability, T/C [36]: 28.1% | viability, T/C [47]: 24.4% | viability, T/C [48]: 22.8%

CC(Nc1ccc2c(c1)OCCn1cc(N3C(=O)OCC3C(F)F)nc1-2)C(N)=O (stereo not drawn) + CCn1c(-c2cc(N3CCN(C)CC3)cnc2C(C)OC)c2c3cc(ccc31)-c1csc(n1)CC(NC(=O)C1CC1C)C(=O)N1CCCC(N1)C(=O)OCC(C)(C)C2
IC50 (second compound 0.000949 µM): > 10000 nM | IC50 (second compound 0.003 µM): 3450 nM | IC50 (second compound 0.00949 µM): 854 nM | IC50 (second compound 0.03 µM): 98.5 nM | IC50 (second compound 0.0949 µM): < 31.6 nM | IC50 (second compound 0.3 µM): < 31.6 nM | viability, T/C [3]: 89.5% | viability, T/C [4]: 82.3% | viability, T/C [5]: 71.9% | viability, T/C [6]: 66.6% | viability, T/C [37]: 59.6% | viability, T/C [38]: 49.6% | viability, T/C [9]: 82.4% | viability, T/C [10]: 79.2% | viability, T/C [11]: 63.4% | viability, T/C [12]: 62.6% | viability, T/C [39]: 51.6% | viability, T/C [40]: 40.2% | viability, T/C [15]: 79.3% | viability, T/C [16]: 75% | viability, T/C [17]: 48.5% | viability, T/C [18]: 52.4% | viability, T/C [41]: 43.8% | viability, T/C [42]: 31.9% | viability, T/C [21]: 55.8% | viability, T/C [22]: 48.4% | viability, T/C [23]: 42% | viability, T/C [24]: 42.7% | viability, T/C [43]: 34.7% | viability, T/C [44]: 25.7% | viability, T/C [27]: 42.3% | viability, T/C [28]: 38% | viability, T/C [29]: 31.6% | viability, T/C [30]: 27.9% | viability, T/C [45]: 22.7% | viability, T/C [46]: 16.3% | viability, T/C [33]: 28.2% | viability, T/C [34]: 26.2% | viability, T/C [35]: 22.9% | viability, T/C [36]: 21% | viability, T/C [47]: 18.6% | viability, T/C [48]: 14.2%

O=C(c1ccc(F)c(F)c1Nc1ccc(I)cc1F)N1CC(O)([C@@H]2CCCCN2)C1 + CCn1c(-c2cc(N3CCN(C)CC3)cnc2C(C)OC)c2c3cc(ccc31)-c1csc(n1)CC(NC(=O)C1CC1C)C(=O)N1CCCC(N1)C(=O)OCC(C)(C)C2
IC50 (second compound 0.000949 µM): 132 nM | IC50 (second compound 0.003 µM): 84.5 nM | IC50 (second compound 0.00949 µM): 36.1 nM | IC50 (second compound 0.03 µM): 8.39 nM | IC50 (second compound 0.0949 µM): < 3.16 nM | IC50 (second compound 0.3 µM): < 3.16 nM | viability, T/C [1]: 96% | viability, T/C [2]: 91% | viability, T/C [3]: 72.6% | viability, T/C [4]: 58.3% | viability, T/C [5]: 31.8% | viability, T/C [6]: 19.9% | viability, T/C [7]: 97.5% | viability, T/C [8]: 83.3% | viability, T/C [9]: 70.5% | viability, T/C [10]: 46% | viability, T/C [11]: 29.1% | viability, T/C [12]: 19.3% | viability, T/C [13]: 80.9% | viability, T/C [14]: 69.2% | viability, T/C [15]: 50.1% | viability, T/C [16]: 38% | viability, T/C [17]: 24.1% | viability, T/C [18]: 18.7% | viability, T/C [19]: 63.6% | viability, T/C [20]: 45.8% | viability, T/C [21]: 36.9% | viability, T/C [22]: 30.1% | viability, T/C [23]: 19.7% | viability, T/C [24]: 18.6% | viability, T/C [25]: 35% | viability, T/C [26]: 33.2% | viability, T/C [27]: 30.3% | viability, T/C [28]: 18.4% | viability, T/C [29]: 17.9% | viability, T/C [30]: 18.8% | viability, T/C [31]: 28.3% | viability, T/C [32]: 26.1% | viability, T/C [33]: 20.1% | viability, T/C [34]: 16.9% | viability, T/C [35]: 18.4% | viability, T/C [36]: 17%
